Results: US9034303B2, “Neuroprotective and neuro-restorative iron chelators and monoamine oxidase inhibitors and uses thereof” (priority 2010, dated 2015)
Like-named read-outs stand apart in the source and are kept apart here.

Key:
[1] = Plasma stability in vitro in human blood plasma (LC-MS/MS); type: in vitro ADME; conditions: 10 μM, ~37° C.
Procedure: The stability of the compound 3 was evaluated in human blood plasma. Human plasma was purchased from a commercial source (Bioreclamation, Inc., East Meadow, N.Y.). The plasma was prepared from blood collected using sodium fluoride/potassium oxalate as the anticoagulant. The plasma was stored at −20° C. prior to use. The plasma, once thawed for use, was centrifuged at ˜4000 rpm for five minutes and transferred to a new tube to remove any precipitate. The pH of the plasma was adjusted to 7.4. Compound 3 was added to plasma samples to achieve a final concentration of 10 μM and distributed into the required number of low retention tubes (triplicate tubes for each timepoint) for incubation at ˜37° C. in a water bath. Incubations were terminated at 0, 1, and 6 hours by the addition of three volumes of cold acetonitrile. The supernate after centrifugation was subjected to LC-MS/MS analysis. Stability of the test article was assessed by comparison of the peak area at one and six hours to that at time zero.

[2] = biological target: rat brain MAO-A (Rattus norvegicus (Rat), UniProt P21396); experiment: In vitro inhibition of rat brain MAO-A (14C-5-HT substrate); type: biochemical
Sequence of rat brain MAO-A (P21396 whole entry): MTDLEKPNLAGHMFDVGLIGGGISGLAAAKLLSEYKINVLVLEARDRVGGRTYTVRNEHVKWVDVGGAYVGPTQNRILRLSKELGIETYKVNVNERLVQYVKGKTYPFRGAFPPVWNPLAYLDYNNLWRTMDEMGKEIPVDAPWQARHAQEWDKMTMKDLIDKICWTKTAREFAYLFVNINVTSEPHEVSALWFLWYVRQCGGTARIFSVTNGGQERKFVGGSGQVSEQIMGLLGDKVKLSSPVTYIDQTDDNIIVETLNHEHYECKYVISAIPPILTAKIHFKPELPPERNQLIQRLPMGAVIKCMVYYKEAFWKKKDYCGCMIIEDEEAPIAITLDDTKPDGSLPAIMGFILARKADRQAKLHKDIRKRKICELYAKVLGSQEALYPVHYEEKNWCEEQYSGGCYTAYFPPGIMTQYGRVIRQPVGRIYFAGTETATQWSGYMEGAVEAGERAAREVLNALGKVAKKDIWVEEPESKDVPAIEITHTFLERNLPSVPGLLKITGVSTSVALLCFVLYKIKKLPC
Procedure: (§1) Rats are decapitated and the brains quickly taken into a weighted ice-cold sucrose buffer (0.32 M) and their weights determined. All subsequent procedures are performed at 0° C. The brains are homogenized in 0.32 M sucrose (one part tissue to 20 parts sucrose) in a Teflon glass homogenizer followed by the addition of sucrose buffer to a final concentration of 10% homogenate. The homogenates are centrifuged at 600 g for 15 min. The supernatant fractions are taken out and centrifuged at 4500 g for 30 min, the pellet diluted in 0.32 M sucrose buffer and kept frozen for later assaying of MAO. Protein concentration is determined with Bradford reagent at λ=595 nm, using BSA as a standard.
(§2) MAO-A and MAO-B activities are determined in rat brain homogenate in vitro following incubation with varying concentrations of the test compounds.
The activity of MAO-A and MAO-B was determined by the adapted method of Tipton & Youdim (Tipton K F, O'Sullivan J, Youdim M B, 1983, Encyclopedia of Neuroscience, 2004, G. Adelman and B. H. Smith, Elsevier). The test compound was added to a suitable dilution of the enzyme preparation (70 μg protein for MAO-B and 150 μg MAO-A assay) in 0.1 M phosphate buffer (pH 7.4). The mixture was incubated together with […], a specific inhibitor of MAO-B (for determination of MAO-A) or 0.05 M clorgylin, a specific inhibitor of MAO-A (for determination of MAO-B). Incubation was carried for 0.5 or 1 h at 37° C. before addition of ^14C-5-hydroxytryptamine binoxalate (5-HT) (100 or 400 μM) for determination of MAO-A, or ^14C-phenylethylamine (^14C-PEA) 100 or 400 μM for determination of MAO-B, and incubation continued for 30 min or 20 min, respectively. The reaction was stopped with 2 M ice-cold citric acid, and the metabolites were extracted and determined by liquid-scintillation counting in cpm units. […]
(§3) MAO-A and MAO-B activity was measured using radioactive substrates. The substrate for MAO-A was 5 HT and for MAO-B was PEA. When measuring the activity of MAO-A, the MAO-B activity was inhibited with deprenyl and when measuring the activity of MAO-B the activity of MAO-A was inhibited with clorgylin. Blank samples were produced using TCP to inhibit both of the enzymes. The metabolites were extracted to toluene and read in a β-counter. The results are expressed in relative activity and normalized to the amount of protein in the tissue.

[3] = biological target: rat brain MAO-B (Rattus norvegicus (Rat), UniProt P19643); experiment: In vitro inhibition of rat brain MAO-B (14C-PEA substrate); type: biochemical
Sequence of rat brain MAO-B (P19643 whole entry): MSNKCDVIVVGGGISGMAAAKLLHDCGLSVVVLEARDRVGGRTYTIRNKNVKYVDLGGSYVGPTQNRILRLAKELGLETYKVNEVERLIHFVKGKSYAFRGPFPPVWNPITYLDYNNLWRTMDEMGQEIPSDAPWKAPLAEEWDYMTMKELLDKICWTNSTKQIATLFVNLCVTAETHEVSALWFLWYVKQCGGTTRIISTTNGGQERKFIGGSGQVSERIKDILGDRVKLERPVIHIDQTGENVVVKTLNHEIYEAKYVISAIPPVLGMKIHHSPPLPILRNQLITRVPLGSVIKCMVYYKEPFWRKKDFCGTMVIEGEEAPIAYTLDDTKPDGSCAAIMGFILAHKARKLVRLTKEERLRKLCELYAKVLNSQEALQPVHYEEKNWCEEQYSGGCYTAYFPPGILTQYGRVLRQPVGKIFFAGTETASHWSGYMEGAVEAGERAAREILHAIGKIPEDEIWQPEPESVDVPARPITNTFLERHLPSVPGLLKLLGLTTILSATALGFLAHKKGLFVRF
Procedure: as §1, with “MAO.” for “MAO. Protein concentration is determined with Bradford reagent at λ=595 nm, using BSA as a standard.”
as §2
The in vitro inhibitory activity of the compounds is tested against rat brain MAO-B. The test compounds are added to buffer containing 10^−7 M clorgylin and are incubated with the tissue homogenate for 30 or 60 min at 37° C. before addition of ^14C-PEA.
The test compound was added to a suitable dilution of the enzyme preparation (70 μg protein for MAO-B and 150 μg MAO-A assay) in 0.1 M phosphate buffer (pH 7.4). The mixture was incubated together with […], a specific inhibitor of MAO-B (for determination of MAO-A) or 0.05 M clorgylin, a specific inhibitor of MAO-A (for determination of MAO-B). Incubation was carried for 0.5 or 1 h at 37° C. before addition of ^14C-5-hydroxytryptamine binoxalate (5-HT) (100 or 400 μM) for determination of MAO-A, or ^14C-phenylethylamine (^14C-PEA) 100 or 400 μM for determination of MAO-B, and incubation continued for 30 min or 20 min, respectively. The reaction was stopped with 2 M ice-cold citric acid, and the metabolites were extracted and determined by liquid-scintillation counting in cpm units.
The reaction was stopped with 2 M ice-cold citric acid, and the metabolites were extracted with ethyl acetate and levels of radioactivity were determined by liquid-scintillation counting in CPM units. All assays were performed at least in duplicate and outcome was expressed as a mean±SEM. Data were analyzed by a Student's t test. Variations were considered statistically significant at a p value of 0.05.
as §3

C#CCN(C)CCc1ccc(O)c2ncccc12 [Compound 3, 5-[2-(methyl-2-propyn-1-ylamino)ethyl]-8-quinolinol]
Amount of compound 3 in human blood plasma ([1]; 0 hour, reference time point): 100% | Amount of compound 3 in human blood plasma ([1]; 1 hour): 86% | Amount of compound 3 in human blood plasma ([1]; 6 hours): 93% | IC50 [2]: 70 to 90 nM | Inhibition of rat brain MAO-A in vitro (in words) ([2]; rat brain): potent inhibitors | IC50 ([2]; read-out: MAO-A IC50, estimated from the data in FIG. 1, rat brain MAO-A): 70 to 90 nM | IC50 [3]: 10 to 30 nM | Inhibition of rat brain MAO-B in vitro (in words) ([3]; rat brain): potent inhibitors
